pEC50: −log10 of the molar value.
Legend:
[1] = biological target: Human STING (hSTING, residues 155-341, wild-type sequence) (Homo sapiens, UniProt Q86WV6, H232R); test: hSTING binding by differential scanning fluorimetry (DSF); conditions: for binding to human STING compared to the other diastereomer(s) of the same Example / thermal shift compared to ribose Example 5/Compound 23 in WO 2016/145102: in words
Description: Differential Scanning Fluorimetry (DSF)
Assay buffer: 20 mM Tris, 150 mM NaCl pH7.5
Target Protein: Human STING (hSTING, residues 155-341, wild-type sequence with N-terminal His8-tag and TEV-cleavage site, MW: 23601.5 Da)
Protein stock solution: c=309 μM stock solution in assay buffer
Final Assay concentrations of test compounds: 100 μM, 3 μM target protein, “5×” SYPR Orange
1) Compound stock solutions and dilutions thereof were prepared in assay buffer
2) 5 μl fluorescent dye stock solution (5000×SYPRO Orange) was mixed with 50 μl target protein (309 μM) and 945 μl buffer.
3) 2 μl of this protein-dye-mixture (25×SYPRO Orange and 15 μM Protein) was added to 8 μl compound solution.
4) Certain well positions were used as negative control.
5) The plates were prepared for duplicate measurement and centrifuged for 2 min at 1000 g.
6) In the measurement, 160 cycles of 0.5° C. were used (temperature ramp 15 s/cycle, 15° C. to 95° C.).
Data analysis: The dissociation curves were processed in Bio-Rad CFX Manager. Peak type was set to “negative”. In the case of Examples 1.1, 2.1, 3.1 and 4.1, at least two Tm measurements were averaged.

[2] = biological target: T1, human STING protein in THP1-Blue ISG cells (Homo sapiens, UniProt Q86WV6, G230A/H232R/R293Q/R71H); test: In vitro cytokine induction, THP1-Blue ISG reporter cell assay (IRF-inducible SEAP); assay type: cell-based; conditions: 24 hours incubation, SEAP OD at 620 nm
T1 construct: endogenous STING levels from the parental, unmodified THP1-Blue ISG cell lines; endogenous in cells; host or cells: THP1-Blue ISG cells
From the text: In Vitro Cytokine Induction
Activation of the STING protein expressed in THP1 cells results in an increase of interferon production. By the stable integration of an interferon regulatory factor (IRF)-inducible SEAP (secreted embryonic alkaline phosphatase) reporter construct the functional interferon signaling pathway can be monitored. Using Invivogen's QUANTI-Blue™ colorimetric enzyme assay and a suitable optical density (OD) reader the activity of SEAP can be detected and quantified. This technique could be used to characterize pharmacological modification of the STING protein.
Measurements of SEAP activity were performed in THP1-Blue ISG cells stably expressing the human STING protein and the IRF-inducible SEAP reporter construct. Cells were cultivated for expansion in RPMI1640 medium with 10% fetal calf serum, 50 μg/ml Penicillin-Streptomycin, 100 μg/ml Zeocin, and 100 μg/ml Normocin in a 37°, 95% humidity and 5% CO2 incubator. Assay-ready cells were stored as frozen stocks.
In preparation for the assay, the cells were thawed in Zeocin-/Normocin-free medium and were distributed into the assay plates with a density of 15000 cells/15 μL per well. Compounds were prepared by an 8- or 16-point serial dilution in 50% aqueous DMSO and a final dilution step into medium to ensure a final DMSO concentration of 0.5% in the assay. 5 μL of diluted compounds plus 5 μL medium were added to the plates, followed by a 24 hours incubation at 37° C.
At the day of the assay, 75 μl per well of Quanti-Blue reagent was added to all wells of the plate and the plate was incubated another 30 minutes at 37° C. The OD at 620 nm was measured on the EnVision reader (PerkinElmer). EC50 values and Hill slopes were derived from 8- or 16-point four parametric non-linear curve fittings with the Megalab software (Boehringer Ingelheim) using the OD at 620 nm.

[3] = 100 μM test compound, 3 μM target protein, Sodium Salt
[4] = 100 μM test compound, 3 μM target protein

T1 sequence (Q86WV6 whole entry R71H/G230A/H232R/R293Q): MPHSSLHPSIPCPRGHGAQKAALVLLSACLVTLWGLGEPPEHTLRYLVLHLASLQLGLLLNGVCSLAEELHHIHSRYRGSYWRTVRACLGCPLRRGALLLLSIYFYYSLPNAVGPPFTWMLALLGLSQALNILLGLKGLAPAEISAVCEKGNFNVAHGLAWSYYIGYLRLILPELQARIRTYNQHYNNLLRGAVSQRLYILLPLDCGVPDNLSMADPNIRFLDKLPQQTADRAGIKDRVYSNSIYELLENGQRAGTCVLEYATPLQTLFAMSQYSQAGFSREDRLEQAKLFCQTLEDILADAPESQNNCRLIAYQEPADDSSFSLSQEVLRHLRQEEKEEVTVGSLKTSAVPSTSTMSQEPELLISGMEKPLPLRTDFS
Human STING (hSTING, residues 155-341, wild-type sequence), sequence (Q86WV6 155-341 H232R limits assumed): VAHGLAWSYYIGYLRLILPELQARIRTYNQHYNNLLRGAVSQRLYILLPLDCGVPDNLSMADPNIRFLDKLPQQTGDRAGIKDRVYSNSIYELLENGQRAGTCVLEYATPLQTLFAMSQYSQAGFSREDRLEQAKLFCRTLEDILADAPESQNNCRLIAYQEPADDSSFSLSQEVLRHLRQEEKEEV

| hSTING Tm shift [1, 4] [°C] | pEC50 [2] | ΔTm at 100 µM ([1]; 100 μM test compound, 3 μM target protein, read-out: hSTING Tm shift) [°C] | Compound | hSTING Tm shift [1, 3] [°C] | pEC50 ([2]; Sodium Salt) | binding to human STING compared to the other diastereomer(s) of the same Example [1] | thermal shift compared to ribose Example 5/Compound 23 in WO 2016/145102 [1] |
| --- | --- | --- | --- | --- | --- | --- | --- |
| – | – | – | Cyclic (LNA-adenosine-(3′→5′)-phosphorothioate-2′-F-2′-deoxyguanosine-(3′→5′)-phosphorothioate), Sodium Salt [Example 2.2] | 21.8 | 7.30 | – | – |
| – | – | – | Cyclic (LNA-guanosine-(3′→5′)-phosphorothioate-2′-F-2′-deoxyadenosine-(3′→5′)-phosphorothioate), Sodium Salt [Example 3.3] | 21.6 | 6.89 | – | – |
| – | – | – | Cyclic (LNA-adenosine-(3′→5′)-phosphorothioate-2′-F-2′-deoxyguanosine-(3′→5′)-phosphorothioate), Sodium Salt [Example 2.1] | 30.3 | 6.85 | improved binding to human STING as compared to Example 2.2 | significantly larger thermal shifts |
| 21.0 | 7.22 | – | Nc1ncnc2c1ncn2[C@@H]1O[C@@H]2COP(=O)(S)O[C@H]3[C@H]4OC[C@@]3(COP(=O)(S)O[C@H]2[C@H]1F)O[C@H]4n1cnc2c(N)ncnc21 (single isomer, unassigned) [Example 1.2, Cyclic (LNA-adenosine-(3′→5′)-phosphorothioate-2′-F-2′-deoxyadenosine-(3′→5′)-phosphorothioate)] | – | – | – | – |
| – | – | – | Cyclic (LNA-guanosine-(3′→5′)-phosphorothioate-2′-F-2′-deoxyadenosine-(3′→5′)-phosphorothioate), Sodium Salt [Example 3.1] | 30.7 | 6.82 | improved binding to human STING as compared to other Example 3 diastereomers | significantly larger thermal shifts |
| 21.1 | – | – | Nc1nc2c(ncn2C2OC3COP(O)(=S)OC4C(COP(O)(=S)OC3C2F)OC(n2cnc3c(N)ncnc32)C4O)c(=O)[nH]1 (centres unmarked) [Example 5 Compound 23 in WO 2016/145102, 3′3′-RR-(2′F-G)(A), reference compound] | – | – | – | – |
| – | – | – | Cyclic (LNA-guanosine-(3′→5′)-phosphorothioate-2′-F-2′-deoxyadenosine-(3′→5′)-phosphorothioate), Sodium Salt [Example 3.4] | 10.9 | 5.70 | – | – |
| – | 6.96 | 27.6 | Nc1ncnc2c1ncn2[C@@H]1O[C@@H]2COP(=O)(S)O[C@H]3[C@H]4OC[C@@]3(COP(=O)(S)O[C@H]2[C@H]1F)O[C@H]4n1cnc2c(N)ncnc21 (single isomer, unassigned) [Example 1.1, Cyclic (LNA-adenosine-(3′→5′)-phosphorothioate-2′-F-2′-deoxyadenosine-(3′→5′)-phosphorothioate)] | – | – | improved binding to human STING as compared to Example 1.2 | significantly larger thermal shifts |
| – | – | – | Cyclic (LNA-adenosine-(3′→5′)-phosphorothioate-2′-F-2′-deoxyinosine-(3′→5′)-phosphorothioate), Sodium Salt [Example 4.2] | 21.4 | 6.96 | – | – |
| – | – | – | Cyclic (LNA-adenosine-(3′→5′)-phosphorothioate-2′-F-2′-deoxyinosine-(3′→5′)-phosphorothioate), Sodium Salt [Example 4.1] | 30.0 | 6.77 | improved binding to human STING as compared to Example 4.2 | significantly larger thermal shifts |
| – | – | – | Cyclic (LNA-guanosine-(3′→5′)-phosphorothioate-2′-F-2′-deoxyadenosine-(3′→5′)-phosphorothioate), Sodium Salt [Example 3.2] | 22.4 | 7.15 | – | – |
